The values that follow are results of earlier work, collected in patent publication US10828311B2, “Controlled release compositions and their methods of use” (BAYER NEW ZEALAND LTD, priority 2012, dated 2020).

As usually defined, the MIC90 is the lowest concentration that inhibits either 90% of growth or 90% of the strains tested, depending on the study.

In brackets after ≈: the same amount, converted by molar mass.

The test system of this data set is microbes. As to conditions: for Cloxacillin in New Zealand.

As to `Cc1onc(-c2ccccc2Cl)c1C(=O)N[C@@H]1C(=O)N2[C@@H]1SC(C)(C)[C@@H]2C(=O)O` [Cloxacillin, cloxacillin], the MIC90 is 0.5 µg/mL (≈ 1.15 µM).
